Source: PubChem BioAssay (NCI)
Values joined by “and” are separate entries in the source; they are usually repeats but may differ in a detail not shown here. Equal values may be shown once.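 Exposure lasted 48 hours, with cells grown in 96-well plates and compounds tested at five concentrations. At the GI50, growth is halved. TGI marks complete inhibition of growth.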

How the values were obtained:
Test in all cases: inhibition of tumour cell growth, NCI panel, 48 h
[1] = test system: M19-MEL melanoma
[2] = test system: OVCAR-5 ovarian
[3] = test system: CCRF-CEM leukemia
[4] = test system: OVCAR-4 ovarian
[5] = test system: HL-60(TB) leukemia
[6] = test system: UACC-62 melanoma
[7] = test system: LXFL 529 NSCLC
[8] = test system: HOP-18 NSCLC
[9] = test system: DLD-1 colon
[10] = test system: UO-31 renal
[11] = test system: SNB-75 CNS
[12] = test system: HS 578T breast

Row | Compound | TGI [1] [µM] | TGI [2] [µM] | TGI [3] [µM] | TGI [4] [µM] | TGI [5] [µM] | TGI [6] [µM] | TGI [7] [µM] | TGI [8] | TGI [9] [µM] | TGI [10] [µM] | TGI [11] [µM] | TGI [12] [µM] | GI50 [2] | GI50 [8] [µM]
1 | OC12c3ccccc3C1CCCCCC21OCCCO1 (configuration not stated) | > 100 | > 100 | > 100 | > 100 | > 100 | > 100 | > 100 | > 100 µM | > 100 | > 100 | > 100 |  |  | 
2 | C=CCn1c(=N)/c(=C(\N)O)s/c1=C1/SC(=S)N(c2ccc(C)cc2)C1=O | > 100 | > 100 | > 100 |  | > 100 | > 100 | > 100 | > 100 µM |  | > 100 | 44.6 |  |  | 
3 | COc1cc2c(c(OC)c1OC)-c1ccc(SC)c(=O)cc1C(CC(=O)Oc1cccc(F)c1)C2 (configuration not stated) | 16.2 | > 100 | > 31.9 | > 100 | 0.6 | 1.07 | > 40.8 | > 100 µM | > 100 | > 100 |  |  |  | 
4 | CCn1c(CSc2nc(-c3ccccc3)c(-c3ccccc3)[nH]2)n[nH]c1=S | > 100 | > 100 | > 100 | > 100 | > 100 |  | > 100 |  | > 100 | > 100 | > 100 |  |  | 
5 | COc1cc(C2c3cc4c(cc3[C@@H](N(C)c3ccc(N(C)C)cc3)C3COC(=O)C23)OCO4)cc(OC)c1O (some centres not stated) | 12.1 | 31.3 | 35.5 | 29.4 | 7.84 | 23.1 | 12.3 | 26.2 µM | 37.5 | 19.4 | 42.3 |  |  | 
6 | Cc1ccc(C2C(Cl)C(=O)N2NC(=O)c2ccc(N)cc2)cc1 (configuration not stated) | 38.9 | 47.9 | 39.2 | > 100 | 31.2 | 31.4 | 29.3 |  | 40.2 | 86.5 | > 100 |  |  | 
7 | CC[n+]1c(/C=C/c2ccc(N(CCCl)CCCl)cc2)ccc2cc(I)ccc21 |  | 7.77 |  | 2.29 | 0.675 | 1.68 | 1.52 | 8.54 µM | 6.14 | 14.2 | 0.903 |  |  | 
8 | OC12CCC3(O)c4ccccc4C3C1c1ccccc12 (configuration not stated) | > 100 |  | > 100 | > 100 | > 100 | > 100 | > 100 | > 100 µM |  | > 100 | > 100 |  |  | 
9 | COc1cc(S(=O)(=O)Nc2ccc(-c3csc(N4C(=O)C(Cl)C4c4cccs4)n3)cc2)ccc1Cl (configuration not stated) |  | > 100 | 35.7 | 77.5 | > 100 | > 100 |  |  |  | > 100 | > 100 | > 100 |  | 
10 | COc1ccc(/C=C/C(=O)Oc2ccccc2OC)cc1 |  | 98.2 | 10.5 | > 60.7 | > 32.5 | 97.9 |  |  |  | > 100 | > 74.1 | > 89.6 |  | 
11 | CN1NC(c2ccccc2)=C(C#N)C(=O)CC1c1ccc(Br)cc1 (configuration not stated) |  | 73.7 |  | > 100 | 83 |  | > 100 | > 100 µM | > 100 |  | 46.9 |  |  | 
12 | C=CC[C@]1(C2=NC(C)(C)CO2)c2ccccc2-c2ccccc2[C@H]1C(C)=O |  | 51 | 37.2 | > 69 | 15.8 | 19.2 |  |  |  | 28 | 46.2 | 25.1 |  | 
13 | C=CCn1c(-c2ccc(Cl)cc2)csc1=Nc1ccccc1OC |  | > 100 | > 100 | > 100 | 86.3 | > 94 |  |  |  | > 100 | > 94.3 | > 100 |  | 
14 | O=C(O)c1ccc(Nc2nc3nn(Cc4ccccc4)cc3c(=O)s2)cc1 | > 100 | > 100 | > 100 |  | > 100 |  | > 100 | > 100 µM | > 100 | > 100 |  |  |  | 
15 | Cc1ccc(SCC(OCn2cnc3c(Cl)nc(N)nc32)[C@H](C)F)cc1 (some centres not stated) |  | > 100 | > 100 | > 100 | 96.8 | > 100 |  |  |  | > 100 | > 100 | > 100 |  | 
16 | COCOc1cc(OC)ccc1C/C(=N/O)C(=O)OC |  | > 100 | > 100 | > 100 | > 100 | > 100 |  |  |  | > 100 | 74.4 | > 100 |  | 
17 | NCCNC(=O)CN(CC(=O)O)C1CCCCC1N(CC(=O)O)CC(=O)O (configuration not stated) |  | > 100 | > 100 | > 100 | > 100 | > 100 |  |  |  | > 100 | 94.9 | > 100 |  | 
18 | Cc1cc2nnc(C(N)=O)c(N)c2cc1C |  | > 100 | > 100 | > 100 | > 100 | > 100 |  |  |  | > 100 | 39.6 | > 100 |  | 
19 | O/N=C\C(=Nc1ccc(Cc2ccc(N=C(/C=N\O)NO)cc2)cc1)NO | > 100 | > 100 | > 100 | > 100 | 66.5 | > 100 | > 100 | > 100 µM | > 100 | 65 |  |  |  | 
20 | C[n+]1cn(-c2nc3ccccc3nc2[N-]S(=O)(=O)c2ccccc2)c2ccccc21 |  | > 100 | > 100 | > 100 | > 100 | > 100 |  |  |  | > 100 | > 100 | > 100 |  | 
21 | O=C(c1ccco1)N(C(=S)N1CCN(c2ccccn2)CC1)c1ccccc1 | > 100 | > 100 | > 100 | > 100 | > 100 | > 100 | > 100 | > 100 µM | > 100 | > 100 | > 100 |  |  | 
22 | Cc1ccc(S(=O)(=O)NC(=O)NC(CCC(N)=O)C(=O)O)cc1 (configuration not stated) |  | > 100 | > 100 | > 100 | > 100 | > 100 |  |  |  | > 100 | > 100 | > 100 |  | 
23 | CC(=O)NC1(C)C(C)C2CC1C(C)C2(C)C (configuration not stated) |  | > 100 | > 100 | > 100 | > 100 | > 100 |  |  |  | > 100 | > 100 | > 100 |  | 
24 | CN(C)c1ccc(/C=C(\NC(=O)c2ccccc2)C(=O)NC(Cc2c[nH]c3ccccc23)C(=O)O)cc1 (configuration not stated) |  | > 100 | > 100 | > 100 | > 100 | > 100 |  |  |  | > 100 | 33.1 | > 100 |  | 
25 | Cc1cc(NS(=O)(=O)c2ccc(Nc3c4ccccc4nc4c(C(=O)NCCO)cccc34)cc2)no1 |  | > 100 | 75.2 | 86.7 | > 100 | > 100 |  |  |  | 99.7 | 53.9 | > 100 |  | 
26 | Cc1ccc(C(=O)N/N=C2/C(=O)c3c4ccccc4cc4cccc2c34)cc1 |  | > 100 | > 100 | > 100 | > 100 | > 93.1 |  |  |  | > 100 | > 81 | 58.1 |  | 
27 | COC(=O)CC(C(C(C)=O)C(=O)OCc1ccccc1)N1C(=O)OC(c2ccccc2)C1c1ccccc1 (configuration not stated) | > 100 | > 100 | > 100 |  | > 100 | > 100 | > 100 | 51.1 µM and > 100 µM | > 100 |  |  |  | > 100 µM and 34.3 µM | > 100
28 | COc1ccc(/C(Cl)=C(\C=O)c2ccc(Cl)cc2)cc1OC | 48.3 | > 100 | 10.3 | 73.6 | 7.74 | 39.9 | 37.4 | > 100 µM | > 100 | 28 | 11.5 |  |  | 
